Results published in patent US11945807B2, “Splicing modulator antibody-drug conjugates and methods of use” (EISAI R&D MANAGEMENT CO., LTD., priority 2018, dated 2024).
Read-outs that look alike come from different tables or passages of the source.

Key:
SF3b complex = molecular target: T1, SF3b complex (Homo sapiens, UniProt O75533+Q7RTV0); assay: SF3B1 binding / scintillation proximity assay (SPA)
T1 construct: The beads were suspended and added to the prepared nuclear extracts; endogenous in cells; host or cells: nuclear extracts
Description: A scintillation proximity assay was performed to measure the binding affinity of compounds (“payloads”) to the SF3b complex. Batch immobilization of anti-SF3B1 antibody (MBL) to anti-mouse PVT SPA scintillation beads (PerkinElmer) was prepared as follows: for every 2.5 mg of nuclear extracts, 5 μg of anti-SF3B1 antibody and 1.5 mg of beads were mixed in 150 μL PBS. The antibody-bead mixture was incubated for 30 min at RT and centrifuged at 18,000 g for 5 min. 150 μL PBS was used to resuspend every 1.5 mg antibody-bead mixture. The beads were suspended and added to the prepared nuclear extracts. The slurry was incubated for 2 hours at 4° C. with gentle mixing. The beads were then collected by centrifuging at 18,000 g for 5 min, and washed twice with PBS+0.1% Triton X-100. After a final centrifugation step, every 1.5 mg of beads was suspended with 150 μL of PBS. […] The mixture was incubated for 30 min, and luminescence signals were read using a MicroBeta2 Plate Counter (PerkinElmer). Prism 7 (Graphpad) was used for non-linear regression curve fitting of the data.

THP1.1 = assay: Payload cell potency and lethality CTGlo 72 h, THP1.1; type: cell-based
[1] = Caco-2 permeability of ADC payload; type: in vitro ADME; settings: human; for Papp B→A at 2 h, 10 NM: basolateral to apical, read-out: Permeability Mean Caco-2 B-A Perm (10e−G cm/s)
Description: (§1) Integrity of cell monolayer was confirmed by TEER (transepithelial electrical resistance) and Lucifer yellow. Payloads were spiked in duplicate at 10 NM, separately, on both sides of the cell monolayer. Permeability rates from the apical to basolateral (A-B) direction and the basolateral to apical (B-A) direction were determined by sampling aliquots from both chambers immediately after treatment (t=0) and following incubation for 2 hours. Samples were protein precipitated with organic solvent containing internal standard and analyzed by LC-MS/MS (SCIEX; API 5500). The area ratio responses of payload/internal standard over time in both directions were used to generate permeability (cm/sec) values.

[2] = Chemical stability of ADC payload, pH 5.5 buffer; type: physicochemical; settings: for half-life at 20 μM: McIlvaine (citrate-phosphate) buffer, unconjugated payload, Citrate-Phosphate buffer pH 5.5, 37° C., read-out: Stability Mean Stability t1/2 pH5.5 (converted); for pH 5.5 Stability (t1/2, 37 C.): pH 5.5, 37 C., corresponding payload
Description: (Eppendorf ThermoMixer). […] Time 0 was set to 100.

N87 cells = assay: Cell viability CellTiter-Glo, N87; type: cell-based, human; settings: unconjugated payload of the ADC; for GI50: Homo sapiens
Description: (§2) HCC1954 (American Type Culture Collection (ATCC)) breast ductal carcinoma cells were plated at 2000 cells/well in flat bottom 96-well tissue culture plates (Corning) in a total volume of 90 μL tissue culture medium supplemented with 10% fetal bovine serum (ThermoFisher Scientific). Cells were treated with a 3-fold serial dilution of compound from 200 nM to 0.03 nM. Each concentration was tested in triplicate. At the time of treatment, a plate of untreated cells was evaluated using CellTiter-Glo®2.0 Luminescent Cell Viability Assay according to the manufacturers recommendations (Promega; #G9241). CellTiter-Glo® 2.0 reagent was added to the medium, incubated, and assayed on an EnVision Multilabel Reader (PerkinElmer). Values represent time zero (T0). […] Percentage growth inhibition was calculated as: [(T144−T0)/(C−T0)]×100 for concentrations for which T144>/=T0 or [(T144−T0)/T0]×100 for concentrations for which T144<T0. The dose response curve plots were generated using Prism 7 (Graphpad) and fit using nonlinear regression analysis and the log(inhibitor) versus response-variable slope (four parameters).
(§3) HCC1954 (ATCC), 2000 cells/well), N87 (ATCC, 4000 cells/well), SKBR3 (ATCC, 3000 cells/well), and MCF7 (ATCC, 1500 cells/well) cell lines were used.

MCF7 cells = assay: Cell viability CellTiter-Glo, MCF7 (HER2-negative); type: cell-based; settings: Homo sapiens, unconjugated payload of the ADC
Description: as §2, §3

Caco-2 cells = assay: Caco-2 permeability of ADC payload; type: in vitro ADME; settings: for Perm. Mean Caco 2 A-B Perm (10e−6 cm/s) / Perm. Mean Caco 2 B-A Perm (10e−6 cm/s): corresponding free payload
Description: as §1

MOLP8 cells = assay: Cell viability CellTiter-Glo, MOLP8 (CD138-expressing); type: cell-based; settings: for GI50: Homo sapiens, MOLP-8, unconjugated payload of the ADC in the row, read-out: Payload GI50
Description: as §2
(§4) Anti-CD138 ADCs were tested in the CD138-expressing MOLP8 multiple myeloma cell line. Similarly, anti-EPHA2 ADCs were tested in the EPHA2-expressing PC3 prostate cancer cell line.

PC3 cells = assay: Cell viability CellTiter-Glo, PC3 (EPHA2-expressing); type: cell-based; settings: for GI50: Homo sapiens, PC-3, free payload of the ADC
Description: as §2, §4

HCC1954 cells = assay: Cell viability CellTiter-Glo, HCC1954; settings: for GI50: Homo sapiens, HCC1954, read-out: Payload GI50 (nM)
NCIH1650.1 = assay: Payload cellular potency CTGlo-ATS 72 h, NCIH1650.1; type: cell-based; settings: cell line #1, 72 h, corresponding free payload; for GI50: read-out: CTGlo-ATS GMean GI50 (nM) 72 h NCIH1650.1
NCIH1568.1 = assay: Payload cellular potency CTGlo-ATS 72 h, NCIH1568.1; type: cell-based; settings: cell line #2, 72 h, corresponding free payload; for GI50: read-out: CTGlo-ATS GMean GI50 (nM) 72 h NCIH1568.1
[3] = Caco-2, unconjugated payload, apical to basolateral, 2 hours, read-out: Permeability Mean Caco-2 A-B Perm (10e−6 cm/s)
[4] = Caco-2, unconjugated payload, 2 hours
[5] = Caco-2, A-B, corresponding payload (Table 26), read-out: Permeability Caco-2 A-B (10e−6 cm/s)
[6] = unconjugated payload of the ADC
[7] = unconjugated payload of the ADC, HCC1954 cells
[8] = read-out: CTGlo-ATS GMean GI50 (nM) 72 h THP1.1, cell line #3, 72 h, corresponding free payload
[9] = unconjugated payload, [3H]-pladienolide B probe displacement, read-out: SPA-AT S GMean IC50 (nM) SF381 (WT) HELA.2

| Compound | CTGlo-AT S Mean Min-Response % 72 h THP1.1 (THP1.1; unconjugated payload) | Papp A→B at 2 h, 10 NM [1, 3] | Papp B→A at 2 h, 10 NM [1, 4] | half-life at 20 μM [2] | GI50 (N87 cells) | Payload Rmin (%) (N87 cells) | GI50 (MCF7 cells) | Papp A→B at 2 h, 10 NM [1, 5] | pH 5.5 Stability (t1/2, 37 C.) [2] | GI50 (MOLP8 cells) | GI50 (PC3 cells) | Payload Rmin (%) (PC3 cells; free payload of the ADC) | GI50 (HCC1954 cells) | GI50 (THP1.1; [8]) | Perm. Mean Caco 2 A-B Perm (10e−6 cm/s) (Caco-2 cells) | Perm. Mean Caco 2 B-A Perm (10e−6 cm/s) (Caco-2 cells) | CTGlo-ATS GMean LD50 (nM) 72 h NCIH1650.1 (NCIH1650.1) | GI50 (NCIH1650.1) | CTGlo-ATS GMean LD50 (nM) 72 h NCIH1568.1 (NCIH1568.1) | GI50 (NCIH1568.1) | also measured |
| --- | --- | --- | --- | --- | --- | --- | --- | --- | --- | --- | --- | --- | --- | --- | --- | --- | --- | --- | --- | --- | --- |
| CC[C@H](O)[C@@H](C)[C@H]1O[C@@H]1C[C@H](C)/C=C/C=C(\C)[C@H]1OC(=O)C[C@H](O)CC[C@@](C)(OC(C)=O)[C@@H](OC(=O)N2CCNCC2)/C=C/[C@@H]1C [D9] | −99.938% | 1.15 ×10⁻⁶ cm/s | 16.1 ×10⁻⁶ cm/s | < 24 h |  |  |  |  |  |  |  |  |  |  |  |  |  |  |  |  | IC50 (SF3b complex): 2.18 nM |
| CC[C@H](O)[C@@H](C)[C@H]1O[C@@H]1C[C@@](C)(O)/C=C/C=C(\C)[C@H]1OC(=O)C[C@H](O)CC[C@@](C)(OC)[C@@H](OC(=O)N2CCN(CCCC(=O)O)CC2)/C=C/[C@@H]1C [D25] | −77.246% | 0.137 ×10⁻⁶ cm/s | 0.349 ×10⁻⁶ cm/s | 120 h | > 200 nM | 40.364% | > 200 nM | 0.14 ×10⁻⁶ cm/s | 3.4 | 150 nM | > 400 nM | 77.524% | 168 nM |  |  |  |  |  |  |  | GI50 (THP1.1; unconjugated payload, payload cell potency and lethality): 348.114 nM; payload permeability (in words) (Caco-2 cells): poorly permeable; Payload LD50 (MOLP8 cells; [6]): >400 nM; Payload LD50 (PC3 cells; free payload of the ADC): >400 nM |
| CC(=O)N1CCC(n2nnc3c(F)cc(/C=C(\C)[C@H]4OC(=O)C[C@H](O)CC[C@H](C)[C@@H](OC(=O)N5CCN(C)CC5)/C=C/[C@@H]4C)cc32)CC1 [D15] | −99.595% | 3.43 ×10⁻⁶ cm/s | 26.9 ×10⁻⁶ cm/s | > 168 h | 0.41 nM | −68.045% | 0.961 nM | 3.4 ×10⁻⁶ cm/s | 7 | 0.776 nM | 3.88 nM | −79.835% | 0.358 nM |  |  |  |  |  |  |  | Payload LD50 (N87 cells): >200 nM; Payload LD50 (HCC1954 cells; [7]): 2.037 nM; Payload Rmin (%) (HCC1954 cells; [7]): −84.412% |
| CC[C@H](O)[C@@H](C)[C@H]1O[C@@H]1C[C@@](C)(O)/C=C/C=C(\C)[C@H]1OC(=O)C[C@H](O)CC[C@@](C)(OC(=O)N2CCNCC2)[C@@H](OC(C)=O)/C=C/[C@@H]1C [D8, (2S,3S,6S,7R,10R,E)-6-acetoxy-10-hydroxy-2-((R,2E,4E)-6-hydroxy-7-((2R,3R)-3-((2R,3S)-3-hydroxypentan-2-yl)oxiran-2-yl)-6-methylhepta-2,4-dien-2-yl)-3,7-dimethyl-12-oxooxacyclododec-4-en-7-yl piperazine-1-carboxylate] | −99.92% | 0.128 ×10⁻⁶ cm/s | 2.03 ×10⁻⁶ cm/s | 84.6 h | 8.84 nM | −34.052% | 29.6 nM |  |  |  | 16.6 nM | −68.37% | 2.64 nM | 8.74 nM | 0.128 10e−6 cm/s | 2.027 10e−6 cm/s | >10000.00 nM | 19.1 nM | 68.125 nM | 6.57 nM |  |
| C/C(=C\c1cc(F)cc(N2CCOCC2)c1)[C@H]1OC(=O)C[C@H](O)CC[C@H](C)[C@@H](OC(=O)N2CCN(C)CC2)/C=C/[C@@H]1C [D17] | −99.033% | 20.2 ×10⁻⁶ cm/s | 18.2 ×10⁻⁶ cm/s |  |  |  |  | 20 ×10⁻⁶ cm/s | 7 |  |  |  |  |  |  |  |  |  |  |  | IC50 (SF3b complex; [9]): 1.82 nM |
| CC[C@H](O)[C@@H](C)[C@H]1O[C@@H]1C[C@@](C)(O)/C=C/C=C(\C)[C@H]1OC(=O)C[C@H](O)CC[C@@](C)(OC)[C@@H](OC(=O)N2CCN(C)CC2)/C=C/[C@@H]1C [D2, (2S,3S,6S,7R,10R,E)-10-hydroxy-2-((R,2E,4E)-6-hydroxy-7-((2R,3R)-3-((2R,3S)-3-hydroxypentan-2-yl)oxiran-2-yl)-6-methylhepta-2,4-dien-2-yl)-7-methoxy-3,7-dimethyl-12-oxooxacyclododec-4-en-6-yl 4-methylpiperazine-1-carboxylate] | −100.218% | 0.624 ×10⁻⁶ cm/s | 14.2 ×10⁻⁶ cm/s | 96 h | 0.749 nM | −72.706% | 2.85 nM | 0.6 ×10⁻⁶ cm/s | 4 | 0.316 nM | 2.39 nM | −68.803% | 0.6 nM |  |  |  |  |  |  |  | IC50 (SF3b complex; [9]): 15.5 nM; Payload Rmin (%) (MOLP8 cells; [6]): −100.198% |
| CC[C@H](O)[C@@H](C)C1OC1C[C@@](C)(O)/C=C/C=C(\C)[C@H]1OC(=O)C[C@H](O)CC[C@@](C)(OC(C)=O)[C@@H](OC(=O)N2CCNCC2)/C=C/[C@@H]1C (stereo in doubt) [D4, (2S,3S,6S,7R,10R,E)-7-acetoxy-10-hydroxy-2-((R,2E,4E)-6-hydroxy-7-((2S,3S)-3-((2R,3S)-3-hydroxypentan-2-yl)oxiran-2-yl)-6-methylhepta-2,4-dien-2-yl)-3,7-dimethyl-12-oxooxacyclododec-4-en-6-yl piperazine-1-carboxylate] | −99.957% | 0.1 ×10⁻⁶ cm/s | 1.79 ×10⁻⁶ cm/s | 106 h | 3.24 nM | −81.775% | 11.4 nM | 0.1 ×10⁻⁶ cm/s | 4.5 | 1.15 nM | 11.1 nM | −55.97% | 1.7 nM | 10.9 nM | 0.1 10e−6 cm/s | 1.79 10e−6 cm/s | 1960.398 nM | 11.9 nM | 45.485 nM | 6.37 nM |  |
| CC[C@H](O)[C@@H](C)C1OC1C[C@@](C)(O)/C=C/C=C(\C)[C@H]1OC(=O)C[C@H](O)CC[C@@](C)(OC)[C@@H](OC(=O)N2CCNCC2)/C=C/[C@@H]1C (stereo in doubt) [D1, (2S,3S,6S,7R,10R,E)-10-hydroxy-2-((R,2E,4E)-6-hydroxy-7-((2S,3S)-3-((2R,3S)-3-hydroxypentan-2-yl)oxiran-2-yl)-6-methylhepta-2,4-dien-2-yl)-7-methoxy-3,7-dimethyl-12-oxooxacyclododec-4-en-6-yl piperazine-1-carboxylate] | −100.615% | 0.14 ×10⁻⁶ cm/s | 2.05 ×10⁻⁶ cm/s | 94.8 h | 7.04 nM | −40.041% | 17 nM |  |  |  | 13.3 nM | −71.987% | 1.85 nM | 11.1 nM | 0.14 10e−6 cm/s | 2.05 10e−6 cm/s | >10000.00 nM | 12.1 nM | 65.737 nM | 7.36 nM | IC50 (SF3b complex; target binding, corresponding free payload, read-out: SPA-ATS GMean IC50 (nM) SF3B1 (WT) HELA.2): 6.08 nM; IC50 (SF3b complex; [9]): 6.08 nM |
